Assay results reported in patent US20150105252A1, “SUBSTITUTED PYRAZOLES AS HERBICIDES” (E I DU PONT DE NEMOURS AND COMPANY, priority 2013, published 2015).

Key:
[1] = system: rice; test: Test B flood; format: in vivo, Oryza sativa; settings: 250 g ai/ha, visual rating on 0 to 100 scale (0 no effect, 100 complete control), 13 to 15 days
Summary of the method: (§1)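 Plants were grown to the 2-leaf stage and pots flooded to 3 cm above soil. Compounds were applied directly into the paddy water, with depth kept for the test. After 13–15 days in greenhouse, response was rated visually against controls on a 0 (no effect) to 100 (complete control) scale.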

[2] = system: barnyardgrass; test: Test B flood; format: in vivo, Echinochloa crus-galli; settings: 250 g ai/ha, visual rating on 0 to 100 scale (0 no effect, 100 complete control), 13 to 15 days
Summary of the method: as §1

[3] = system: blackgrass; test: Test C preemergence; format: in vivo, Alopecurus myosuroides; settings: preemergence; for Plant response rating, Blackgrass: 125 g ai/ha, scale 0 to 100, 0 = no effect, 100 = complete control
Summary of the method: (§2)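 Seeds sown in loam–sand blend and treated preemergence with test chemicals in non-phytotoxic solvent with surfactant; postemergence plants in peat-based medium, treated at 2–18 cm (1- to 4-leaf stage). Greenhouse 13 to 15 days, then visual rating versus controls, 0 (no effect) to 100 (complete control).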

[4] = system: wheat; test: Test C preemergence; format: in vivo, Triticum aestivum; settings: preemergence; for Plant response rating, Wheat: 125 g ai/ha, scale 0 to 100, 0 = no effect, 100 = complete control
Summary of the method: as §2

[5] = system: nutsedge, yellow; test: Test C preemergence; format: in vivo, Cyperus esculentus; settings: preemergence; for Plant response rating, Nutsedge, Yellow: 125 g ai/ha, scale 0 to 100, 0 = no effect, 100 = complete control
Summary of the method: as §2

[6] = system: ryegrass, Italian; test: Test C postemergence; format: in vivo, Lolium multiflorum; settings: postemergence
Summary of the method: as §2

[7] = system: foxtail, giant; test: Test C postemergence; format: in vivo, Setaria faberii; settings: for Plant response rating (scale of 0 to 100 where 0 is no effect and 100 is complete control), Foxtail, Giant: Postemergence, 31 g ai/ha, visually evaluated after 13 to 15 days; for Foxtail, Giant plant response rating / Plant response rating, Foxtail, Giant: postemergence; for Foxtail, Giant plant response rating: 62 g ai/ha, scale 0 to 100
Summary of the method: as §2

[8] = system: johnsongrass; test: Test C postemergence; format: in vivo, Sorghum halepense; settings: for Plant response rating (scale of 0 to 100 where 0 is no effect and 100 is complete control), Johnsongrass: Postemergence, 31 g ai/ha, visually evaluated after 13 to 15 days; for Johnsongrass plant response rating / Plant response rating, Johnsongrass: postemergence; for Johnsongrass plant response rating: 62 g ai/ha, scale 0 to 100
Summary of the method: as §2

[9] = system: morningglory; test: Test C postemergence; format: in vivo, Ipomoea coccinea; settings: for Plant response rating (scale of 0 to 100 where 0 is no effect and 100 is complete control), Morningglory: Postemergence, 31 g ai/ha, visually evaluated after 13 to 15 days; for Morningglory plant response rating / Plant response rating, Morningglory: postemergence; for Morningglory plant response rating: 62 g ai/ha, scale 0 to 100
Summary of the method: as §2

[10] = system: nutsedge, yellow; test: Test C postemergence; format: in vivo, Cyperus esculentus; settings: for Plant response rating (scale of 0 to 100 where 0 is no effect and 100 is complete control), Nutsedge, Yellow: Postemergence, 31 g ai/ha, visually evaluated after 13 to 15 days; for Nutsedge, Yellow plant response rating / Plant response rating, Nutsedge, Yellow: postemergence; for Nutsedge, Yellow plant response rating: 62 g ai/ha, scale 0 to 100
Summary of the method: as §2

[11] = system: pigweed; test: Test C postemergence; format: in vivo, Amaranthus retroflexus; settings: postemergence; for Pigweed plant response rating: 62 g ai/ha, scale 0 to 100
Summary of the method: as §2

[12] = system: oat, wild; test: Test C postemergence; format: in vivo, Avena fatua; settings: for Plant response rating (scale of 0 to 100 where 0 is no effect and 100 is complete control), Oat, Wild: Postemergence, 31 g ai/ha, visually evaluated after 13 to 15 days; for Oat, Wild plant response rating / Plant response rating, Oat, Wild: postemergence; for Oat, Wild plant response rating: 62 g ai/ha, scale 0 to 100
Summary of the method: as §2

[13] = 31 g ai/ha, visual rating, scale 0 to 100 (0 no effect, 100 complete control), 13 to 15 days
[14] = 62 g ai/ha, scale 0 to 100 (0 no effect, 100 complete control), 13 to 15 days
[15] = 250 g ai/ha, scale 0 to 100, 0 is no effect, 100 is complete control
[16] = 250 g ai/ha, scale 0 to 100 (0 no effect, 100 complete control)
[17] = 125 g ai/ha, scale 0 to 100, 0 no effect, 100 complete control

| SMILES | Plant response rating, Rice [1] | Plant response rating, Barnyardgrass [2] | Blackgrass plant response rating [3, 13] | Blackgrass plant response rating [3, 14] | Plant response rating, Blackgrass ([3]; 13 to 15 days) | Blackgrass plant response rating [3, 15] | Wheat plant response rating [4, 13] | Wheat plant response rating [4, 14] | Plant response rating, Wheat ([4]; 13 to 15 days) | Wheat plant response rating [4, 15] | Nutsedge, Yellow plant response rating [5, 13] | Nutsedge, Yellow plant response rating [5, 14] | Plant response rating, Nutsedge, Yellow ([5]; 13 to 15 days) | Nutsedge, Yellow plant response rating [5, 15] | Plant response rating, Ryegrass, Italian [6, 16] | Plant response rating, Ryegrass, Italian [6, 17] | Plant response rating (scale of 0 to 100 where 0 is no effect and 100 is complete control), Foxtail, Giant [7] | Foxtail, Giant plant response rating [7] | Plant response rating, Foxtail, Giant [7, 16] | Plant response rating, Foxtail, Giant [7, 17] | also measured |
| --- | --- | --- | --- | --- | --- | --- | --- | --- | --- | --- | --- | --- | --- | --- | --- | --- | --- | --- | --- | --- | --- |
| CCCc1cc(C(=O)NC2CC2)nn1Cc1cc(C(F)(F)F)nn1C [Compound 202] | 30 | 30 | 10 | 85 | 90 | 90 | 0 | 85 | 85 | 90 | 0 | 5 | 30 | 50 | 5 | 5 | 5 | 10 | 35 | 10 | Plant response rating (scale of 0 to 100 where 0 is no effect and 100 is complete control), Johnsongrass [8]: 0; Johnsongrass plant response rating [8]: 5; Plant response rating, Johnsongrass [8, 16]: 25; Plant response rating, Johnsongrass [8, 17]: 5; Plant response rating (scale of 0 to 100 where 0 is no effect and 100 is complete control), Morningglory [9]: 35; Morningglory plant response rating [9]: 40; Plant response rating, Morningglory [9, 16]: 98; Plant response rating, Morningglory [9, 17]: 90; Plant response rating (scale of 0 to 100 where 0 is no effect and 100 is complete control), Nutsedge, Yellow [10]: 0; Nutsedge, Yellow plant response rating [10]: 5; Plant response rating, Nutsedge, Yellow [10, 16]: 20; Plant response rating, Nutsedge, Yellow [10, 17]: 10; Pigweed plant response rating [11]: 80; Plant response rating, Pigweed [11, 16]: 95; Plant response rating, Pigweed [11, 17]: 90; Plant response rating (scale of 0 to 100 where 0 is no effect and 100 is complete control), Oat, Wild [12]: 5; Oat, Wild plant response rating [12]: 5; Plant response rating, Oat, Wild [12, 16]: 30; Plant response rating, Oat, Wild [12, 17]: 10 |
| CCCc1cc(C(=O)NC(C)C)nn1Cc1cc(C(F)(F)F)nn1C [Compound 201] | 45 | 70 | 85 | 90 | 90 | 90 | 80 | 85 | 90 | 90 | 5 | 20 | 55 | 80 | 15 | 5 | 10 | 10 | 85 | 30 | Plant response rating (scale of 0 to 100 where 0 is no effect and 100 is complete control), Johnsongrass [8]: 5; Johnsongrass plant response rating [8]: 5; Plant response rating, Johnsongrass [8, 16]: 85; Plant response rating, Johnsongrass [8, 17]: 30; Plant response rating (scale of 0 to 100 where 0 is no effect and 100 is complete control), Morningglory [9]: 80; Morningglory plant response rating [9]: 95; Plant response rating, Morningglory [9, 16]: 98; Plant response rating, Morningglory [9, 17]: 85; Plant response rating (scale of 0 to 100 where 0 is no effect and 100 is complete control), Nutsedge, Yellow [10]: 10; Nutsedge, Yellow plant response rating [10]: 10; Plant response rating, Nutsedge, Yellow [10, 16]: 10; Plant response rating, Nutsedge, Yellow [10, 17]: 5; Pigweed plant response rating [11]: 65; Plant response rating, Pigweed [11, 16]: 90; Plant response rating, Pigweed [11, 17]: 80; Plant response rating (scale of 0 to 100 where 0 is no effect and 100 is complete control), Oat, Wild [12]: 5; Oat, Wild plant response rating [12]: 10; Plant response rating, Oat, Wild [12, 16]: 40; Plant response rating, Oat, Wild [12, 17]: 25 |
